This note sets out measurements from ChEMBL document CHEMBL1131353, “Structurally similar small molecule photoaffinity CCK-A agonists and antagonists as novel tools for directly probing 7TM receptors-ligand interactions” (Bioorg Med Chem Lett, 1998).

In assay [1] the target is T1, Cholecystokinin receptor type A (Rattus norvegicus, UniProt P30551).
T1 sequence (P30551 whole entry): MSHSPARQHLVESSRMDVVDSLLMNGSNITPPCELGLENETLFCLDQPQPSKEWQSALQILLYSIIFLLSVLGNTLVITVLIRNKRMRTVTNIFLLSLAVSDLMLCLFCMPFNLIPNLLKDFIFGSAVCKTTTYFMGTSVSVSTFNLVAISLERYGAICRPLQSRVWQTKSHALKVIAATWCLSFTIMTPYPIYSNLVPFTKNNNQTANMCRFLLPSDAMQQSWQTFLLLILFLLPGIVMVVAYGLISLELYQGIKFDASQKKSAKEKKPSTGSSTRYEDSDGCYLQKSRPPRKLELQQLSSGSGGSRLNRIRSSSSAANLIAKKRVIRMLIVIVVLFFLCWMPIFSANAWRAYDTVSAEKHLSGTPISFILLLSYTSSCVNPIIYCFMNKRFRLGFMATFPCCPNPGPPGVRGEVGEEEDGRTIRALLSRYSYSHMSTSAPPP
Nature of the assay: Displacement of 125I]-D-Tyr-Gly-[(Nle28,31)CCK-26-33] from rat cell membrane Cholecystokinin type A receptor. On the technique in general: Loss of bound radioactivity is the signal in a displacement assay; it reports binding, not function.

The species entered for assay [2] is Rattus norvegicus. Nature of the assay: Compound was tested in vitro for its ability to stimulate dispersed rat pancreatic acini to secrete amylase into the medium using CCK-8 as an agonist control; no activity detected at maximum concentration. Type of assay: functional.
The target of assay [3] is T2, Cholecystokinin receptor type A (Rattus norvegicus) (UniProt P30551).
T2 sequence (whole entry): T1 sequence (P30551 whole entry)
Nature of the assay: In vitro efficacy was measured in rat Cholecystokinin type A receptor at 1.0 uM.

For assay [4], the species on record is Rattus norvegicus. Nature of the assay: Compound was tested in vitro for its ability to stimulate dispersed rat pancreatic acini to secrete amylase into the medium using CCK-8 as an agonist control. Format: functional.

SMILES strings stand for the structures.

As for `CN(C(=O)CN1C(=O)C(NC(=O)Nc2cccc(C3(C(F)(F)F)N=N3)c2)C(=O)N(c2ccccc2)c2ccccc21)c1ccccc1` (centres undefined), the IC50 (usually the midpoint of a concentration-inhibition curve) in assay [1] was found to be 310 nM. Further, the EC50 (in general, the concentration needed to bring the measured effect to its halfway point) in the assay listed under Rattus norvegicus [2] is listed as “Not Active”.

With `COc1ccc(N(C(=O)CN2C(=O)C(NC(=O)Nc3cccc(C(=O)c4ccccc4)c3)C(=O)N(c3ccccc3)c3ccccc32)C(C)C)cc1` (centres undefined), the half-inhibitory concentration (IC50) in assay [1] came out at 80 nM. The Efficacy in assay [3] is 68%. This compound also had an EC50 in the assay listed under Rattus norvegicus [4] of 460 nM.

`COc1ccc(N(C)C(=O)CN2C(=O)C(NC(=O)Nc3ccccc3)C(=O)N(c3ccccc3)c3ccccc32)cc1` (centres undefined) returned a 50% inhibitory concentration (IC50) in assay [1] of 390 nM.

The compound `CC(C)N(C(=O)CN1C(=O)C(NC(=O)Nc2cccc(C3(C(F)(F)F)N=N3)c2)C(=O)N(c2ccccc2)c2ccccc21)c1ccccc1` (centres undefined) displayed an IC50 in assay [1] of 1300 nM. The Efficacy in assay [3] was found to be 47%. It took 930 nM to reach a half-maximal effect in the assay filed under Rattus norvegicus [4] (EC50).

As to `CC(C)N(C(=O)CN1C(=O)C(NC(=O)Nc2cccc(C(=O)c3ccccc3)c2)C(=O)N(c2ccccc2)c2ccccc21)c1ccccc1` (centres undefined), the IC50 in assay [1] turned out to be 160 nM. Besides, the Efficacy in assay [3] was 64%. The compound also yielded an EC50 in the assay filed under Rattus norvegicus [4] of 730 nM.

`CN(C(=O)CN1C(=O)C(NC(=O)Nc2cccc(C(=O)c3ccccc3)c2)C(=O)N(c2ccccc2)c2ccccc21)c1ccccc1` (centres undefined) had an IC50 in assay [1] of 290 nM.

As to `COc1ccc(N(C)C(=O)CN2C(=O)C(NC(=O)Nc3cccc(C4(C(F)(F)F)N=N4)c3)C(=O)N(c3ccccc3)c3ccccc32)cc1` (centres undefined), the IC50 in assay [1] was 410 nM. For the same compound, the concentration giving a half-maximal response (EC50) entry in the assay filed under Rattus norvegicus [2] is on record as “Not Active”.

Regarding `COc1ccc(N(C(=O)CN2C(=O)C(NC(=O)Nc3cccc(C4(C(F)(F)F)N=N4)c3)C(=O)N(c3ccccc3)c3ccccc32)C(C)C)cc1` (centres undefined), the IC50 in assay [1] stood at 440 nM. Besides, the Efficacy in assay [3] worked out at 75%. The same compound came in with an EC50 in the assay filed under Rattus norvegicus [4] of 600 nM.

In assay [1], `COc1ccc(N(C(=O)CN2C(=O)C(NC(=O)Nc3ccccc3)C(=O)N(c3ccccc3)c3ccccc32)C(C)C)cc1` (centres undefined) yielded an IC50 of 50 nM.

As for `CSCC[C@H](NC(=O)[C@H](Cc1ccc(OS(=O)(=O)O)cc1)NC(=O)[C@@H](N)CC(=O)O)C(=O)NCC(=O)N[C@@H](Cc1c[nH]c2ccccc12)C(=O)N[C@@H](CCSC)C(=O)N[C@@H](CC(=O)O)C(=O)N[C@@H](Cc1ccccc1)C(N)=O` [SINCALIDE], in the assay filed under Rattus norvegicus [4], the EC50 stood at 0.014 nM.

Compound `CC(C)N(C(=O)CN1C(=O)C(NC(=O)Nc2ccccc2)C(=O)N(c2ccccc2)c2ccccc21)c1ccccc1` (centres undefined) registered an Efficacy in assay [3] of 83%. For the same compound, a half-maximal response in the assay listed under Rattus norvegicus [4] (EC50) required 40 nM.

With `COc1ccc(N(C)C(=O)CN2C(=O)C(NC(=O)Nc3cccc(C(=O)c4ccccc4)c3)C(=O)N(c3ccccc3)c3ccccc32)cc1` (centres undefined), the 50% inhibitory concentration (IC50) in assay [1] was 350 nM. Also, the EC50 entry in the assay filed under Rattus norvegicus [2] was “Not Active”.
